Measured values as given in ChEMBL document CHEMBL3632522, “Novel 3,4-methylenedioxyde-6-X-benzaldehyde-thiosemicarbazones: Synthesis and antileishmanial effects against Leishmania amazonensis” (Eur J Med Chem, 2015).
pIC50: −log10 of the molar value. The source made the active and inactive calls. No cut-off for these calls is given here.

Columns and labels:
Leishmania amazonensis [1] = test: Antileishmanial activity against Leishmania amazonensis MHOM/BR/77/LTB0016 assessed as inhibition of parasite growth incubated for 72 hrs by MTT assay; format: functional, organism-based; details: for pIC50: MHOM/BR/77/LTB0016, 72 h
Leishmania amazonensis [2] = test: Antileishmanial activity against Leishmania amazonensis Leishmania amazonensis MHOM/BR/77/LTB0016 intracellular amastigotes infected in BALB/c mouse macrophages incubated for 72 hrs by microscopy; format: functional, organism-based; details: MHOM/BR/77/LTB0016, 72 h
[3] = Cytotoxicity against BALB/c mouse peritoneal macrophages assessed as cell viability after 72 hrs by resazurin assay; format: cell-based, Peritoneal macrophage cell; details: read-out: LD50
[4] = Selectivity index, ratio of LD50 for BALB/c mouse peritoneal macrophages to IC50 for Leishmania amazonensis MHOM/BR/77/LTB0016 intracellular amastigotes infected in BALB/c mouse peritoneal macrophages
[5] = Cytotoxicity against BALB/c mouse peritoneal macrophages infected with Leishmania amazonensis MHOM/BR/77/LTB0016 intracellular amastigotes assessed as cell viability at 12.5 to 100 uM after 72 hrs by resazurin staining based optical microscopy; details: peritoneal macrophage cell
Leishmania amazonensis [6] = test: Antileishmanial activity against Leishmania amazonensis Leishmania amazonensis MHOM/BR/77/LTB0016 intracellular amastigotes infected in BALB/c mouse macrophages at 12.5 to 100 uM incubated for 72 hrs by optical microscopy; format: functional, organism-based

| Compound | inhibition (Leishmania amazonensis [1]) | pIC50 (Leishmania amazonensis [1]) | pIC50 (Leishmania amazonensis [2]) | CC50 at 72 h [3] [µM] | Ratio LD50/IC50 [4] | Activity [5] | Activity (Leishmania amazonensis [6]) |
| --- | --- | --- | --- | --- | --- | --- | --- |
| NC(=S)N/N=C/c1ccc2c(c1)OCO2 | Dose-dependent effect | 4.10 | – | – | – | – | – |
| NC(=S)N/N=C/c1cc2c(cc1O)OCO2 | Dose-dependent effect | 4.28 | – | – | – | – | – |
| NC(=S)N/N=C/c1cc2c(cc1I)OCO2 | Dose-dependent effect | 4.68 | 4.66 | > 125 | >5.7 | Non-toxic | Active |
| NC(=S)N/N=C/c1cc2c(cc1Cl)OCO2 | Dose-dependent effect | 3.61 | – | – | – | – | – |
| NC(=S)N/N=C/c1cc2c(cc1Br)OCO2 | Dose-dependent effect | 3.69 | – | – | – | – | – |
| N=C(N)c1ccc(OCCCCCOc2ccc(C(=N)N)cc2)cc1 [PENTAMIDINE] | Dose-dependent effect | 5.32 | 5.72 | 8.5 | 4.5 | – | – |
| NC(=S)N/N=C/c1cc2c(cc1[N+](=O)[O-])OCO2 | Dose-dependent effect | 3.57 | – | – | – | – | – |
| NC(=S)N/N=C/c1cc2c(cc1N)OCO2 | Dose-dependent effect | 3.93 | – | – | – | – | – |
| NC(=S)N/N=C/c1cc2c(cc1F)OCO2 | Dose-dependent effect | 3.70 | – | – | – | – | – |
| NC(=S)N/N=C/c1cc2c(cc1NC(=O)CCl)OCO2 | Dose-dependent effect | 3.59 | – | – | – | – | – |
| N#Cc1cc2c(cc1/C=N/NC(N)=S)OCO2 | Dose-dependent effect | 4.79 | 4.77 | > 125 | >7.4 | Non-toxic | Active |
